Test results reported in ChEMBL document CHEMBL1155743, “New bromoditerpenes from the red alga Sphaerococcus coronopifolius” (J Nat Prod, 2001).
≈ marks a conversion by molar mass, not a printed value.

How the values were obtained:
Staphylococcus aureus = experiment: Antibacterial activity against Staphylococcus aureus ATCC 6538 by disk diffusion assay; format: functional
Plasmodium falciparum = experiment: Antimalarial activity against chloroquine-resistant Plasmodium falciparum FCB1 in human blood by [3H]hypoxanthine uptake; format: functional, organism-based

With `CC(C)[C@@H]1C=CC(=O)[C@H]2[C@@H]3[C@](C)(O)[C@@H](O)C[C@H](Br)[C@@]3(C)CC[C@]12CBr` [BROMOSPHAERONE] the MIC (Staphylococcus aureus) was 0.104 µM (≈ 0.0497 µg/mL).
`CC(C)[C@@H]1CC=C[C@H]2[C@H]3[C@@](C)(C=CC(=O)[C@@]3(C)O)CC[C@]12CBr` [SPHAEROCOCCENOL A] showed an IC50 (Plasmodium falciparum) of 1000 nM.
`CC(C)[C@@H]1C=C[C@H](O)[C@H]2[C@@H]3[C@](C)(O)[C@@H](O)C[C@H](Br)[C@@]3(C)CC[C@@]21CBr` gave an MIC (Staphylococcus aureus) of 0.146 µM (≈ 0.0701 µg/mL).
